# Measured values as given in patent US20110151031A1, “COMPOSITIONS AND METHODS FOR UTILIZING THE SAME” (DBC, LLC, priority 2008, published 2011).
# Legend:
# [1] = Superoxide dismutase (SOD) activity by ESR in xanthine and xanthine-oxidase system; assay type: biochemical
# Description: (§1) In this example, free radical-scavenging ability was determined as an indicator of antioxidant action. Specifically, free radicals produced by xanthine oxidase were determined by 1,1-diphenyl-2-picrylhydrayil (DPPH, Aldrich). First, xanthine oxidase (Aldrich) was dissolved in 0.01 M phosphate buffer. Hypoxanthine was added to this solution, and the solution was warmed at 37° C. to generate free radicals. To this solution, the composition of Example 6 was added. Further, 0.1 M DPPH solution was added to determine absorbance at 520 nm. Superoxide dismutase (SOD) activity was also determined using Electron Spin Resonance (ESR) in xanthine and xanthine-odixase system. In both cases, vitamin E was used as a positive control.
# [2] = DPPH radical scavenging test; assay type: biochemical; conditions: Example 6 at a dose of 0.1 mg/ml; absorbance at 520 nm
# Description: as §1
substance,measurement,setting,value
vitamin E [VitaminE],SOD activity,[1],90 units/g
same,free radical-scavenging ability (DPPH),[2],460 units/g
